Values after ≈ are worked out from the molar mass of the structure shown. Like-named read-outs stand apart in the source and are kept apart here. Numbered stars: 1 amine (or outer) side, 2 acyl side, 3 side chain; on linkers, the order of the positions; unused ones are H or OH. Bridge positions count the residues as written; N and C are the ends. Side chains are listed from the residue outwards. Peptide text beside a SMILES is read from it. * marks the point of attachment. C20 diacid = O=C(O)CCCCCCCCCCCCCCCCCCC(=O)*; γGlu = O=C(O)[C@H](CCC(=O)[*:2])N[*:1]
Key:
[1] = ThT assay: fibril formation propensity and peptide recovery; assay type: physicochemical; conditions: for recovery: residual dissolved peptide after 45 h of shaking, centrifugation and 0.22 μm filtration, HPLC, relative to amount before stress
Method: The stability properties of the individual amylin analogs were assessed with respect to their propensity toward fibril formation, expressed as the time until fibril formation (measured as Lag time) and loss of dissolved peptide (assessed as Peptide Recovery). […] Samples were prepared as described previously (using the same methodology and materials) for a novel amylin-based analog candidate compound.[7]
Briefly, each compound was dissolved in 10 mM of glycylglycine buffer (pH 4.0) or HEPES buffer (pH 7.5) to a concentration of 250 μM, followed by ThT stock solution to a final concentration of 1 μM. Each solution was aliquoted into a microtiter plate (200 μL/well) sealed with a transparent adhesive sheet. Mechanical stress was applied at 37 °C incubation (960 rpm, 1 mm amplitude) with 20 min fluorescence reading intervals for 45 h (filters: excitation 444 nm; emission 485 nm). Each peptide was tested in experiments consisting of four replicas (e.g., four wells on the same plate), and the lag time of each replica was determined by visual inspection of the fluorescence-versus-time plot. For wells where no fibril formation could be detected, the lag time was set longer than the test period (>45 h). The lag time of the peptide was set to the lowest lag time of the four replicates (conservative estimate). Some of the peptides were tested in more than one experiment, and the lag time results given in Tables 6 and 9 represent the average of these experiments. The ThT time course data given in Supporting Information represent the average and SEM of each experiment.[40] After analysis, wells representing individual replicas were pooled, and the residual soluble peptide was isolated using centrifugation (20,000 g/30 min at room temperature) followed by […] filtration. The amount of residual dissolved peptide was determined using an HPLC with a flow rate of 2 mL/min at 30 °C and 215/276 nm detection. A gradient combining eluent A (7.7% w/w acetonitrile, 200 mM Na2SO4, 20 mM NaH2PO4, 20 mM Na2HPO4, pH 7.2) and eluent B (65.5% w/w acetonitrile) was applied. The amount of residual dissolved peptide was reported on a relative scale (Peptide Recovery) to the amount of dissolved peptide prior to mechanical stress.

[2] = Solubility versus pH profile
[3] = HMWP content by size-exclusion chromatography; assay type: physicochemical; conditions: covalent dimers and polymers prior to fibril formation testing, SEC, % of total absorbance area at 215 nm
Method: The stability properties of the individual amylin analogs were assessed with respect to their propensity toward amyloid fibril formation. The relative amount of covalent dimers and polymers (HMWP) present prior to fibril formation testing was measured as a control for the potential inhibitory effect of HMWP on fibril formation propensity as reported elsewhere.[39]
Elution was performed under isocratic conditions with the following mobile phase prepared in Milli-Q water (Millipore A/S): 0.5 M NaCl, 10 mM sodium dihydrogen monohydrate, 5 mM ortho-phosphoric acid, 50% (v/v) 2-propanol. The amount of HMWP was determined as the absorbance area of the corresponding peaks given in percentage of the total absorbance area. The molar extinction coefficients of the molecules eluting in the HMWP fraction and the main peak was assumed to be equal.

[4] = molecular target: T1, hAMY3R (Homo sapiens, UniProt O60896+P30988); experiment: cAMP-responsive element luciferase reporter assay, human AMY3R; assay type: cell-based; design: expressed in transfected cells; conditions: for EC50: luciferase (human receptor assay)
T1 sequence (P30988 25-474): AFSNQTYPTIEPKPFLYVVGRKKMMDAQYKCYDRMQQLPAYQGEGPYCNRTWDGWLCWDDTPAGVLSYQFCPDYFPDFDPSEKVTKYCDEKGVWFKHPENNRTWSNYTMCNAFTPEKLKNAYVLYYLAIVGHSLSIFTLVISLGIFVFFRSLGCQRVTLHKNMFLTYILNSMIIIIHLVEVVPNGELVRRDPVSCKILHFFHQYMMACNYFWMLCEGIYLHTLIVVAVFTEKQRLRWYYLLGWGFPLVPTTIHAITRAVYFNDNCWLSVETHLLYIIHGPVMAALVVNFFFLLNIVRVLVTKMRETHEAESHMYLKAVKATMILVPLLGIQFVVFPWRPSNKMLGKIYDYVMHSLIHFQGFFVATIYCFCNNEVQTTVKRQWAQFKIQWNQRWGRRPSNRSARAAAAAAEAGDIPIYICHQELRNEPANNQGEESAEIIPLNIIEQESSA
T1 sequence (O60896 24-148 partner): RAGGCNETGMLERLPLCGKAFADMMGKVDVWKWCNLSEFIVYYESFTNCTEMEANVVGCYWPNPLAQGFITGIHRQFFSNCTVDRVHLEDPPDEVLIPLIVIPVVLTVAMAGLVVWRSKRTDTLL

[5] = molecular target: T2, hCTR (Homo sapiens, UniProt P30988); experiment: cAMP-responsive element luciferase reporter assay, human CTR; assay type: cell-based; conditions: luciferase (human receptor assay)
T2 sequence (P30988 25-474): T1 sequence (P30988 25-474)

[6] = test system: rats; experiment: Acute food intake in rats; assay type: in vivo, rat; conditions: single sc injection of 30 nmol/kg, relative to vehicle, mean ± SEM, n = 5–7 per group

**Q.** Which “ThT, pH 7.5 lag-time” value ([1]; 250 μM peptide, 10 mM HEPES pH 7.5, 1 μM ThT, 37 °C, 960 rpm, 45 h, lowest of four replicas, average of experiments) does the source give for `CC[C@H](C)[C@H](NC(=O)[C@@H]1CCCN1C(=O)CNC(=O)[C@H](Cc1ccccc1)NC(=O)[C@@H]1CCCN1C(=O)[C@H](CC(N)=O)NC(=O)[C@H](CO)NC(=O)[C@H](CO)NC(=O)[C@H](Cc1c[nH]cn1)NC(=O)[C@H](CCCNC(=N)N)NC(=O)[C@H](CC(C)C)NC(=O)[C@H](Cc1ccccc1)NC(=O)[C@H](CC(=O)O)NC(=O)[C@H](C)NC(=O)[C@H](CC(C)C)NC(=O)[C@H](CCCNC(=N)N)NC(=O)[C@H](CCC(N)=O)NC(=O)[C@@H](NC(=O)[C@H](C)NC(=O)[C@@H]1CSSC[C@H](NC(=O)[C@@H](N)CCCCNC(=O)CC[C@H](NC(=O)CC[C@H](NC(=O)CCCCCCCCCCCCCCCCCCC(=O)O)C(=O)O)C(=O)O)C(=O)N[C@@H](CC(N)=O)C(=O)N[C@@H]([C@@H](C)O)C(=O)N[C@@H](C)C(=O)N[C@@H]([C@@H](C)O)C(=O)N1)[C@@H](C)O)C(=O)N[C@@H](CC(C)C)C(=O)N[C@@H](CO)C(=O)N[C@@H](CO)C(=O)N[C@H](C(=O)N[C@@H](CC(N)=O)C(=O)N[C@H](C(=O)NCC(=O)N[C@@H](CO)C(=O)N[C@@H](CC(=O)O)C(=O)N[C@H](C(=O)N[C@@H](Cc1ccc(O)cc1)C(N)=O)[C@@H](C)O)C(C)C)[C@@H](C)O` [Peptide 4] (H-K([γGlu-γGlu-C20 diacid])CNTATCATQRLADFLRHSSNPFGPILSSTNVGSDTY-NH2; disulfide 2-7) here?
**A.** Its value is 4 h.

**Q.** What about the recovery ([1]; pH 7.5) of the same compound?
**A.** Its recovery is 21%.

**Q.** And the solubility kinetic ([2]; bis-tris-propane buffer, pH 6, aqueous buffer)?
**A.** The solubility kinetic was 173 µM (≈ 788 µg/mL).

**Q.** What about the solubility kinetic ([2]; bis-tris-propane buffer, pH 6.5, aqueous buffer) of the same compound?
**A.** The solubility kinetic was ≥ 200 µM.

**Q.** What about the solubility kinetic ([2]; bis-tris-propane buffer, pH 7, aqueous buffer) of the same compound?
**A.** Its solubility kinetic is ≥ 200 µM.

**Q.** What about the solubility kinetic ([2]; bis-tris-propane buffer, pH 7.5, aqueous buffer) of the same compound?
**A.** The solubility kinetic was ≥ 200 µM.

**Q.** And the solubility kinetic ([2]; bis-tris-propane buffer, pH 8, aqueous buffer)?
**A.** Its solubility kinetic is ≥ 200 µM.

**Q.** What about the solubility kinetic ([2]; lactate buffer, pH 4, aqueous buffer) of the same compound?
**A.** Its solubility kinetic is ≥ 200 µM.

**Q.** And the solubility kinetic ([2]; lactate buffer, pH 5, aqueous buffer)?
**A.** The solubility kinetic was 38 µM (≈ 173 µg/mL).

**Q.** And the HMWP ([3]; analogs 1–9 (pH 7.5 series))?
**A.** The HMWP was 5%.

**Q.** What about the EC50 ([4]; Tables S12 and S14, read-out: hAMY3R pEC50 (converted)) of the same compound?
**A.** The EC50 was 0.269 nM.

**Q.** And the EC50 ([4]; BHK cells stably expressing hCTR+RAMP3 and CRE-luciferase, 3 h, 37 °C, 10% FBS, read-out: hAMY3R EC50)?
**A.** Its EC50 is 0.267 nM.

**Q.** And the “ratio hCTR/hAMY3R” value ([4]; ratio of luciferase EC50 values)?
**A.** Its value is 2.5.

**Q.** What about the EC50 ([5]; Tables S12 and S14, read-out: hCTR pEC50 (converted)) of the same compound?
**A.** The EC50 was 0.676 nM.

**Q.** And the EC50 ([5]; BHK cells stably expressing hCTR and CRE-luciferase, 3 h, 37 °C, 10% FBS, read-out: hCTR EC50)?
**A.** The EC50 was 0.672 nM.

**Q.** For `CC[C@H](C)[C@H](NC(=O)[C@H](C)NC(=O)CNC(=O)[C@H](Cc1ccccc1)NC(=O)[C@H](CC(N)=O)NC(=O)[C@@H]1CCCN1C(=O)[C@H](CO)NC(=O)[C@H](CO)NC(=O)[C@H](Cc1c[nH]cn1)NC(=O)[C@H](CCCNC(=N)N)NC(=O)[C@H](CC(C)C)NC(=O)[C@H](Cc1ccccc1)NC(=O)[C@H](CC(N)=O)NC(=O)[C@H](C)NC(=O)[C@H](CC(C)C)NC(=O)[C@H](CCCNC(=N)N)NC(=O)[C@H](CCC(N)=O)NC(=O)[C@@H](NC(=O)[C@H](C)NC(=O)[C@@H]1CSSC[C@H](NC(=O)[C@H](CCCCN)NC(=O)COCCOCCNC(=O)CC[C@H](NC(=O)CCCCCCCCCCCCCCCCCCC(=O)O)C(=O)O)C(=O)N[C@@H](CC(N)=O)C(=O)N[C@@H]([C@@H](C)O)C(=O)N[C@@H](C)C(=O)N[C@@H]([C@@H](C)O)C(=O)N1)[C@@H](C)O)C(=O)N1CCC[C@H]1C(=O)N[C@@H](CO)C(=O)N[C@@H](CO)C(=O)N[C@H](C(=O)N[C@@H](CC(N)=O)C(=O)N[C@H](C(=O)NCC(=O)N[C@@H](CO)C(=O)N[C@@H](CCCNC(=N)N)C(=O)N[C@H](C(=O)N[C@@H](Cc1ccc(O)cc1)C(N)=O)[C@@H](C)O)C(C)C)[C@@H](C)O` [Peptide 15], which “ThT, pH 4.0 lag-time” value ([1]; 250 μM peptide, 10 mM glycylglycine pH 4.0, 1 μM ThT, 37 °C, 960 rpm, 45 h, lowest of four replicas, average of experiments) is on record?
**A.** Its value is 27 h.

**Q.** What about the recovery ([1]; pH 4.0) of the same compound?
**A.** The recovery was 67%.

**Q.** And the solubility kinetic ([2]; pH 4, aqueous buffer)?
**A.** Its solubility kinetic is ≥ 200 µM.

**Q.** And the solubility kinetic ([2]; pH 5, aqueous buffer)?
**A.** The solubility kinetic was ≥ 200 µM.

**Q.** And the solubility kinetic ([2]; pH 6, aqueous buffer)?
**A.** Its solubility kinetic is ≥ 200 µM.

**Q.** What about the solubility kinetic ([2]; pH 6.5, aqueous buffer) of the same compound?
**A.** Its solubility kinetic is ≥ 200 µM.

**Q.** And the solubility kinetic ([2]; pH 7, aqueous buffer)?
**A.** Its solubility kinetic is ≥ 200 µM.

**Q.** What about the solubility kinetic ([2]; pH 7.5, aqueous buffer) of the same compound?
**A.** The solubility kinetic was ≥ 200 µM.

**Q.** And the solubility kinetic ([2]; pH 8, aqueous buffer)?
**A.** The solubility kinetic was ≥ 200 µM.

**Q.** And the HMWP ([3]; analogs 10–21 (pH 4.0 series))?
**A.** Its HMWP is 0.7%.

**Q.** What about the “Acute food intake reduction 24–48 h” value [6] of the same compound?
**A.** Its value is 0 ± 5%.
